Tests used:
AGE1.CR.PIX = assay: IBDV replication with or without 5 mM 2-aminopurin, TCID50 titration, AGE1.CR.PIX; type: cell-based, duck; details: AGE1.CR.PIX (normal RAS), IBDV MOI 0.05, 5 mM 2-AP versus none, 96 h
Description: (§1) FIG. 2: Enhancement of IBDV replication following treatment with 2-aminopurin in cell lines with normal RAS function (HEK293, AGE1.CR.PIX) but not in a RAS defective cell line (A549). Cells were infected with IBDV at MOI 0.05 either in the presence of 5 mM 2-aminopurin (2-AP) or without, cells together with supernatant were lysed by 3× freeze/thaw steps, cell debris was removed by centrifugation and the virus titer was quantified by TCID50.
(§2) Because susceptibility varies among cell lines, the positive impact of a RAS defect on IBDV replication has to be shown comparing cells of the same type with a specific propensity to replicate IBDV with normal and defect RAS function. Such RAS defect can be simulated in a cell line with normal RAS when cells are treated with 2-aminopurin. The drug prevents phosphorylation of protein kinase PKR that is prevented in cells with a RAS defect. The effect of 2-aminopurin on IBDV replication is studied in cell lines with (A549) and without a RAS mutation (AGE1.CR.PIX, HEK293).
(§3) HEK 293, A549, and AGE1.CR.pIX cells were infected with IBDV at MOI 0.05 either in the presence of 5 mM 2-aminopurin (2-AP) or without. […] Subsequently, the virus titer was quantified by TCID50 titration in different dilutions using adherent AGE1.CR.PIX cells. Based on the cytopathic effect (CPE) the TCID50 titer was evaluated 72 hours post infection (FIG. 2).

HEK293 = assay: IBDV replication with or without 5 mM 2-aminopurin, TCID50 titration, HEK293; type: cell-based; details: HEK293 (normal RAS), IBDV MOI 0.05, 5 mM 2-AP versus none, 96 h
Description: as §1, §2, §3

A549 = assay: IBDV replication with or without 5 mM 2-aminopurin, TCID50 titration, A549 (RAS mutant); type: cell-based, human; details: IBDV MOI 0.05, 5 mM 2-AP versus none, 96 h
Description: as §1, §2, §3

[1] = test system: stage IV hilar cholangiocarcinoma; assay: Compassionate use case report: cholangiocarcinoma; type: in vivo, human; details: same patient before IBDV; agents added to ongoing low-dose chemotherapy; CA19-9 at diagnosis 2,729
Excerpt: A person approached the clinic for treatment of resistant stage IV hilar cholangiocarcinoma, CK7 positive, CK20 negative with confirmed peritoneal metastatic disease. During 2016 patient developed unexplained weight loss of approximately 10 kg, night pruritus. […] In January 2017 jaundice developed. Blood test on 19 Mar. […] Considering tumor location and potential involvement of both right and left lobes, no surgical procedure was considered, except liver transplantation. On 10 Apr. 2017 a biliary stent was introduced for drainage of rising levels of bilirubin >14 mg/dL. On 13 Apr. 2017 abdominal exploratory laparoscopy reviled peritoneal metastases and conventional chemotherapy was recommended but the patient preferred synergic combination of low doses of gemcitabine, leucovorin, fluorouracil, irinotecan and oxaliplatin administered over 48 h period every two weeks. After discovery of 2 mutations on BRCA1 (Exon 10/V9201) and BRCA2 (Exon 11/N2113S) it was decided to add PARP inhibitor and on 24 Jul. 2017 rucaparib was added and CA19-9 dropped to 287 IU/mL. CA19-9 increased following administration of nivolumab but stabilized at 250 IU/mL by adding abraxane, gemcitabine and oxaliplatin. Following addition of Erbitux and later on combinations of low-dose (1.0 mg/kg) ipilimumab and nivolumab (2 mg/kg) CA19-9 levels dropped from 369 IU/mL to normal levels. […]

Compound	Enhancement of IBDV replication (virus titer, TCID50) (AGE1.CR.PIX)	Enhancement of IBDV replication (virus titer, TCID50) (HEK293)	Effect on IBDV replication (virus titer, TCID50) (A549)	Tumor marker CA19-9 level after adding the agent (earlier therapy, patient history) [1]
Nc1ncc2[nH]cnc2n1 [2-aminopurine]	approximately 10 fold	approximately 10 fold	no benefit	–
CNCc1ccc(-c2[nH]c3cc(F)cc4c3c2CCNC4=O)cc1 [rucaparib]	–	–	–	287 IU/mL
nivolumab	–	–	–	increased
